Test results as given in publication PMC12558477, “Flavin affinity for the reductase HpaC differentially sensitizes Neisseria gonorrhoeae during Type IV pilus-dependent killing” (PLOS Pathogens, 2025).

Target: T1, HpaC (Gc HpaC, FA1090 HpaC) (Neisseria gonorrhoeae, UniProt Q5FAG3)
T1 construct: gene NGO_0059; His6-tagged full-length HpaC from pET28a, expressed in E. coli BL21(DE3); 166 residues; co-purifies with FAD; oligomer not measured (modelled on TftC homodimer)
Experiment: FAD released from purified protein by heat denaturation, coupled-enzyme fluorescent probe kit
Type: binding
Details: 0.5 µM protein, with and without 95 °C for 5 min; room temperature; co-purified FAD

T1 sequence (Q5FAG3 entry or part of it): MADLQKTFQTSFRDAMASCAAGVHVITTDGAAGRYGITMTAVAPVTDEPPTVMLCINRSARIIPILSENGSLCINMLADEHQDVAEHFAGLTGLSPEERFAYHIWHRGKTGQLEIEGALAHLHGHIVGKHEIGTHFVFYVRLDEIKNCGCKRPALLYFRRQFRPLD

Cc1cc2nc3c(=O)[nH]c(=O)nc-3n(C[C@H](O)[C@H](O)[C@H](O)COP(=O)(O)OP(=O)(O)OC[C@H]3O[C@@H](n4cnc5c(N)ncnc54)[C@H](O)[C@@H]3O)c2cc1C [FAD]
FAD released from purified protein by heat denaturation, coupled-enzyme fluoresc: We purified Gc HpaC and noticed an FAD signal in the absence of heat
